In paper PMC11173897, “Computational Docking as a Tool in Guiding the Drug Design of Rutaecarpine Derivatives as Potential SARS-CoV-2 Inhibitors” (Molecules, 2024):

Experiments:
S-protein–ACE2 complex [1] = target: T1, S-protein–ACE2 complex (Severe acute respiratory syndrome coronavirus 2, UniProt P0DTC2); assay: S-protein-based ELISA (spike–ACE2 binding assay kit); parameters: species or system SARS-CoV-2; details: for maximal inhibition, higher than that of RU: S-protein-based ELISA, compared with RU; for IC50: tested at 0.1, 1, 5, 10, 20 µM, n = 4, read-out: IC50, disrupting the S-protein–ACE2 complex
T1 construct: purchased ImmunoDiagnostics Ltd., Hong Kong, China
From the text: An S-protein-based ELISA was utilized to determine the binding activities of RU-75 and RU-184 to the S-protein–ACE2 complex. A standard inhibitor, provided by the supplier (calibrated to NIBSC code 20/136), was employed as a positive control (Figure 6A). […] The maximal inhibition, triggered by RU-75 and RU-184, was at least 20% higher than that of RU.
(A) A standard inhibitor, provided by supplier (calibrated to NIBSC code 20/136), was used as a positive control. (B) Rutaecarpine, RU-75 and RU-184 were detected at concentrations of 0.1, 1, 5, 10, 20 µM. The IC50 values are shown.
Spike (S)-protein inhibition was analyzed with the SARS-CoV-2 spike–ACE2 binding assay kit (ImmunoDiagnostics Ltd., Hong Kong, China), according to the manufacturer’s instructions. The reaction was terminated by the addition of 2 M H2SO4, and the data were quantified using a microplate reader (FlexStation; Molecular Devices, San Jose, CA). The percentage of inhibition was calculated as follows:
Percentage of inhibition = (PAvg − SAvg)/PAvg × 100%, where PAvg and SAvg are the mean OD values of the positive control and test sample, respectively.

[2] = test system: TNF-α, IL-6 and IL-1β mRNA in RAW264.7 cells; assay type: cell-based; details: co-treated with LPS 0.1 µg/mL, 24 h, Figure S2
cells = details: MTT assay, Figure S1
[3] = test system: TNF-α, IL-6 and IL-1β mRNA in RAW264.7 cells; assay type: cell-based
SARS-CoV-2 3CL protease [4] = target: T2, SARS-CoV-2 3CL protease (Severe acute respiratory syndrome coronavirus 2, UniProt P0DTD1); assay: 3CL protease assay (SensoLyte fluorogenic kit); assay type: biochemical; details: n = 4
SARS-CoV-2 3CL protease [5] = target: T2, SARS-CoV-2 3CL protease; details: cited from earlier work
S-protein–ACE2 complex [6] = target: T1, S-protein–ACE2 complex; details: cited from earlier work
[7] = test system: TNF-α, IL-6 and IL-1β mRNA in RAW264.7 cells; details: previous investigation; cited from earlier work
[8] = test system: wild-type SARS-CoV-2 pseudovirus; details: cited from earlier work

## O=c1c2ccc(Nc3ccccc3)cc2nc2n1CCc1c-2[nH]c2ccccc12 [RU-75]
S-protein–ACE2 complex [1]
  maximal inhibition, higher than that of RU: at least 20%
  IC50: 1.03 µM
[2]
  inflammatory suppression: no significant inflammatory suppression
cells
  cell toxicity (cell viability): little impact on the cell viability
[3]
  production of inflammatory cytokines (TNF-α, IL-6 and IL-1β): significantly reduced
SARS-CoV-2 3CL protease [4]
  IC50: 1.31 µM

## O=C1c2ccc(Nc3ccccc3)cc2NC2=NCCc3c2n1c1ccccc31 [RU-184]
S-protein–ACE2 complex [1]
  maximal inhibition, higher than that of RU: at least 20%
  IC50: 0.78 µM
[2]
  inflammatory suppression: no significant inflammatory suppression
cells
  cell toxicity (cell viability): little impact on the cell viability
[3]
  production of inflammatory cytokines (TNF-α, IL-6 and IL-1β): significantly reduced
SARS-CoV-2 3CL protease [4]
  IC50: 1.03 µM

## O=c1c2ccccc2nc2n1CCc1c-2[nH]c2ccccc12 [RU, rutaecarpine]
S-protein–ACE2 complex [1]
  IC50: 1.26 µM
SARS-CoV-2 3CL protease [5]
  3CL protease inhibition: inhibit the 3CL protease
S-protein–ACE2 complex [6]
  formation of the S-protein–ACE2 complex: inhibited the formation of the S-protein–ACE2 complex
cells
  cell toxicity (cell viability): little impact on the cell viability
[7]
  inflammatory response induced by SARS-CoV-2: attenuated the inflammatory response
SARS-CoV-2 3CL protease [4]
  IC50: 1.6 µM
[8]
  entry of SARS-CoV-2 into host cells: prevented the entry of SARS-CoV-2 into host cells
